Results published in US8207206B2, “(S,R)-3-phenyl-4,5 dihydro-5-isoxazole acetic acid-nitric oxide and use thereof as anti-cancer and antiviral agent” (OncoNOx APS, priority 2007, dated 2012).

Columns and labels:
C6 cells = test: ROS measurement by DHR fluorescence (flow cytometry); assay type: cell-based, rat; conditions: C6, 25 μg/ml, 24 h
Description: (§1) The cells grown in the 6-well plate were stained with 1 μM dihydrorhodamine 123 (DHR) 20 min before the treatment with the test compound. At the end of the cultivation period the cells were detached, washed and resuspended in PBS. Analysis of ROS release was performed with a FACSCalibur and analyzed using CellQuest Pro software (Kaludjerovic 2005).

diabetes = conditions: NOD mice with spontaneous or accelerated diabetes, or multiple low dose streptozotocin diabetes; cited from earlier work
B16 cells = test: ROS measurement by DHR fluorescence (flow cytometry); assay type: cell-based, mouse; conditions: B16, 25 μg/ml, 24 h
Description: as §1

L929 cells = test: as above; assay type: cell-based, mouse; conditions: L929, 25 μg/ml, 24 h
Description: as §1

C6 rat astrocytoma cells = test: MTT / CV cell viability test; assay type: cell-based; conditions: C6 cells, different concentrations, 24 h; cell number also reduced by CV
Description: (§2) Rat glioma cell line C6 was a kind gift from Dr. Pedro Tranque (Universidad de Castilla-La Mancha, Albacete, Spain), murine melanoma B16 cell line was a kind gift from Dr. Sinisa Radulovic (Institute for Oncology and Radiology of Serbia, Belgrade, Serbia) while mouse fibrosarcoma L929 was obtained from the European Collection of Animal Cell Cultures (Salisbury, UK). Cells were grown in HEPES-buffered RPM, 1640 medium supplemented with 5% FCS, 2 mM glutamine, 0.01% sodium pyruvate, 5×10^−5 M 2-mercaptoethanol and antibiotics (culture medium) at 37° C. in a humidified atmosphere with 5% CO2. After conventional trypsinization the cells were seeded at a concentration of 10^4 cells/well in a 96-well plate, of 2×10^5 cells/well in a 6-well plate or at 3×10^4 cells/well in a 4-well chamber slide, cultivated overnight, and then exposed to the test compound.
(§3) The cells were seeded in flat-bottom 96-well plates (10^4 cells/well) in a final volume of 200 μl of culture medium, incubated overnight, then treated with different concentrations of the test compound. After 24 h incubation, cell viability was assessed using 3-4,5-dimethylthiazol-2-yl)-2,5-diphenyltetrazolium bromide (MTT) test, based on the mitochondrial-dependent reduction of MTT to formazan, or by crystal violet (CV) staining of adherent cells, as previously described (Mijatovic et al CMLS 2004). The results are presented as % of control values obtained in untreated cultures. The rate of cell proliferation was also determined using flow cytometric analysis of cells labeled with CFSE (Kang 2005). The cells were detached, added with 1.5 μM CFSE and allowed to stand for 15 min at 37° C., then washed twice and seeded in 6-well plates at 2×10^5. The cells were treated with the compound for 24 and 48 h, trypsinized and washed twice. Finally, the cells were resuspended in PBS and analyzed by flow cytometry. Green fluorescence emission from cells illuminated with excitation light of 488 nm was measured with a FACS Calibur (BD, Heidelberg, Germany) and analyzed using the CellQuest software.

B16 mouse melanoma cells = test: MTT / CV cell viability test; assay type: cell-based; conditions: B16 cells, different concentrations, 24 h; cell number also reduced by CV
Description: as §2, §3

[1] = test system: L929 mouse fibrosarcoma cells; test: MTT / CV cell viability test; assay type: cell-based; conditions: L929 cells, different concentrations, 24 h; cell number also reduced by CV
Description: as §2, §3

SMILES: O=C(O)CC1CC(c2ccccc2)=NO1 (racemic) [VGX-1027, (S,R)-3-phenyl-4,5-dihydro-5-isoxasole acetic acid, reference compound]
- intracellular production of ROS (DHR fluorescence) (C6 cells): did not release ROS
- diabetes progress (diabetes): significantly reduces diabetes progress
- intracellular production of ROS (DHR fluorescence) (B16 cells): did not release ROS
- intracellular production of ROS (DHR fluorescence) (L929 cells): did not release ROS
- cell viability (MTT, mitochondrial respiration) (C6 rat astrocytoma cells): did not affect the viability
- cell viability (MTT, mitochondrial respiration) (B16 mouse melanoma cells): did not affect the viability
- cell viability (MTT, mitochondrial respiration) [1]: did not affect the viability
